According to paper PMC10177516, “Design and Biological Evaluation of Small-Molecule PET-Tracers for Imaging of Programmed Death Ligand 1” (Cancers, 2023):
Like-named read-outs stand apart in the source and are kept apart here.

How the values were obtained:
PD-L1 [1] = molecular target: T1, PD-L1 (Homo sapiens, UniProt Q9NZQ7); assay: Real-time radioligand binding (LigandTracer) on PC3 PD-L1 overexpressing cells; conditions: for kon: read-out: ka (association rate constant); for koff: read-out: kd (dissociation rate constant)
T1 construct: expressed in transfected cells; host or cells: PC3 cells, lentiviral transduction (PC3-PD-L1)
T1 sequence (Q9NZQ7 19-290): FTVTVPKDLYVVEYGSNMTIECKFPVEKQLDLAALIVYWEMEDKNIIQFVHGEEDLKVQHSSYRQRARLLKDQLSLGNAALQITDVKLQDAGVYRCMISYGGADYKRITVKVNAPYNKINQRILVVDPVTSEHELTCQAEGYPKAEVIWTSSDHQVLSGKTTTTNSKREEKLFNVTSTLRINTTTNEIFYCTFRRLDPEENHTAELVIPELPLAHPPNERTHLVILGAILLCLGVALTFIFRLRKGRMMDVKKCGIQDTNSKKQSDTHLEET
Description: For binding kinetics (association rate constant ka and dissociation rate constant kd) and dissociation constant (KD), a real-time assay system (LigandTracer Yellow, Ridgeview Instruments AB, Uppsala, Sweden) was employed. In this system, the petri dish containing the cells in medium (3 mL) was located on one side, while radioactivity was detected on the opposite side. The dish rotated on an inclined base, which allowed continuously measuring two or more alternating parts of the dish for bound radioligand (cells) against background (no cells). Binding was performed at room temperature (using CO2-independent medium, Gibco #18045088, ThermoFisher Germany) with or without BSA (2.5%). Association was determined through incubation with two concentrations (10 and 40 nM, 90 min each) of our ^64Cu-labeled PD-L1 small molecules, binding to PC3 PD-L1 overexpressing cells. This was followed by replacement with fresh medium and measurement of dissociation for at least 2 h. This approach provided reliable kinetic measurements as previously shown. Data were acquired in decay-corrected counts per second (CPS). Binding data were then evaluated using TraceDrawer (1.9.2, Ridgeview Instruments AB, Uppsala, Sweden). Traces were imported, potential spikes (>100% sudden increases in CPS over previous datapoint) removed, and each trace was normalized to its own baseline (=0%) and highest value (=100%). The single experiment in the presence of 2.5% BSA was processed in the same way and analyzed for the same parameters, however without replicates.

PD-L1 [2] = molecular target: T1, PD-L1; assay: Saturation binding assay (endpoint, with 2.5% BSA) on PD-L1-positive PC3 cells
Description: To determine the dissociation constant (KD) and number of binding sites (Bmax) of new PD-L1 small-molecule ligands, saturation binding was performed in at least 3 independent experiments. PC3 cells stably transduced with human PD-L1, cultured under conditions described above, were brought to room temperature followed by cooling on ice (each 15 min). The medium was removed and replaced with 200 µL assay buffer [PBS + 2.5% (w/v) bovine serum albumin (BSA; #1ETA, Carl Roth, Karlsruhe, Germany)] for total binding (TB) conditions or assay buffer containing 300 µM of 1 (in DMSO, resulting in 0.03% v/v, synthesized according to Supplementary Scheme S1) for assessment of nonspecific binding (NSB).
After 15 min preincubation for TB/NSB, 200 µL of each eight serial 1:1 dilutions (500 to 3.91 nM) of the respective radioligand were added (in triplicate). […] Radioactivity (counts per minute, CPM) of 400 µL of the lysate was measured in a gamma counter (Perkin Elmer Wizard 1480) using the nuclide-specific energy window. Additionally, we determined the binding to polystyrene in 400 µL of lysate and activity of stock solutions (50 µL). […] Protein content of the lysates (24 or 48 wells) was determined by BCA assay and a mean value (µg/mL) used for this particular dataset (plate). From CPM measurements, final values (pmol/mg protein) were calculated using mean protein content and molar activity. […]

[3] = log D7.4 determination, shake-flask n-octanol/PBS; assay type: physicochemical; conditions: ^64Cu-labeled, n-octanol/PBS pH 7.4, mean ± SD, n=3
Description: n-Octanol/water distribution coefficients (log D7.4) were determined using the shake-flask method and performed in triplicate. Twenty µL of the reaction mixture was added to a 1.5 mL Eppendorf Tube containing 580 µL of 1× PBS (pH 7.4) and 600 µL n-octanol. The two-phase system was shaken at room temperature with 1500 rpm for 5 min. After centrifugation, an aliquot of each phase was withdrawn, and the count rates were measured in a γ-counter (ISOMED2160 sodium iodide crystal detector). The average was calculated, corrected for background activity, and the log D7.4 value was calculated according to the formula: logD7.4=logAn−octanol/APBS .

[4] = Proteolytic stability in human serum, radio-HPLC; assay type: in vitro ADME; conditions: ^177Lu-labeled, throughout the study (up to seven days)
Description: The corresponding radiotracer was labeled with approx. 50 MBq of ^177Lu in 200 µL HEPES solution (pH 4) as described above. After successful labeling, the reaction mixture was diluted 1:10 with human serum. The solution was incubated at 37 °C with shaking at 500 rpm. After 1 h, 24 h, 48 h, 72 h, and 7 d, a 1 µL aliquot was analyzed by radio-TLC as described above. Evaluation and graphical plotting were performed with OriginPro® 9.0.
For investigation by radio-HPLC, a chloroform–methanol precipitation was carried out at each time point. An aliquot (100 µL) of the serum-containing incubation reaction was mixed with 400 µL of MeOH. Then, 100 µL of chloroform were added and the sample was vortexed well. For phase separation, 300 µL of ultrapure water were added, and the sample was vortexed vigorously and centrifuged for 2 min at 14,000× g. The upper, aqueous layer was carefully removed and collected. To the lower chloroform phase and the interphase containing the precipitated proteins, 400 µL of MeOH was added. The sample was mixed and centrifuged again for 3 min at 14,000× g to pellet the proteins. […] Afterward, the clear supernatant was analyzed by radio-HPLC (system E). The peak areas were normalized by measuring the activity with the gamma counter (HIDEX Deutschland Vertrieb GmbH, Mainz, Germany) at the corresponding time point. Evaluation and graphical plotting were performed with OriginPro® 9.0.

human serum proteins = assay: Serum protein binding, size-exclusion chromatography; assay type: in vitro ADME; conditions: ^177Lu-labeled; human serum 37 °C; 1 h
Description: The corresponding ligand was labeled with approx. 50 MBq of ^177Lu in 200 µL HEPES solution (pH 4) as described above. After successful labeling, 40 µL were mixed with 500 µL of human serum or 500 µL of 1 M HEPES solution (control), respectively. The samples were incubated at 37 °C with 500 rpm and were analyzed by size-exclusion chromatography (Jasco Germany GmbH, Pfungstadt, System F) and native discontinuous polyacrylamide gel electrophoresis (PAGE).
For size-exclusion chromatography, 20 µL aliquots were injected into system F and the obtained peak areas of serum-bound ligands and unbound ligands were used to calculate the percentage of radioligand bound to serum proteins. Evaluation and graphical plotting were performed with OriginPro® 9.0.

PD-L1 [5] = tested on: PD-L1; design: method as in earlier work; conditions: reported values; cited from earlier work
[6] = tested on: PC3 PD-L1 and PC3 mock tumors; assay: Small animal PET/CT in tumor-bearing mice; assay type: in vivo, NMRI-nude mice; conditions: blocking with 100 nmol of the respective unlabeled compound; PET
Description: Male athymic NMRI-nude mice (Rj:NMRI-Foxn1nu, Janvier Labs, Le Genest-Saint-Isle, France) between 8 and 22 weeks of age were used. Under general anesthesia, [~10% desflurane (Baxter, Deerfield, IL, USA) in 30 vol% oxygen + air] and warming, animals were subcutaneously injected with 3–5 × 10^6 PC3 PD-L1 and PC3 mock cells [in 50 µL PBS + 50 µL Matrigel (Corning, Glendale, CA, USA)] into the right and left thigh, respectively. Tumor growth was monitored three times a week by caliper measurements and mice with tumor sizes above 7 mm were included in the experiments.
For PET studies, general anesthesia was induced as described above. PET and X-ray computed tomography (CT) were performed in a dedicated small animal nanoScan PET/CT scanner, with 4 animals imaged simultaneously (Mediso, Budapest, Hungary). CT images were employed for attenuation correction and anatomical referencing. Animals received three individual scans corresponding to 0–2 h (dynamic), 4.5 h, and 24 h (static) post injection. […]
Three-dimensional volumes of interest were delineated applying fixed thresholding at 35% of the measured maximum intensity. Standardized uptake values (SUV = [MBq detected activity/mL tissue]/[MBq injected activity/g body weight], […]) were determined in selected volumes of interest, among these PD-L1 and mock tumors and metabolizing organs.

[7] = medium only (no BSA), n = 2, mean ± S.D.

Compound	logD [3]	intact radiotracer [4] [%]	bound to human serum proteins (mean ± SD) (human serum proteins) [%]	other results
CCCC[C@H]1C(=O)N(C)[C@@H](CCCC)C(=O)N[C@@H](CCCNC(=O)CCC(C(=O)O)N2CCN(CC(=O)O)CCN(CC(=O)O)CCN(CC(=O)O)CC2)C(=O)N[C@H](C(=O)NCC(N)=O)CSCC(=O)N[C@@H](Cc2ccc(O)cc2)C(=O)N(C)[C@@H](C)C(=O)N[C@@H](CC(N)=O)C(=O)N2CCC[C@H]2C(=O)N[C@@H](Cc2c[nH]cn2)C(=O)N[C@@H](CC(C)C)C(=O)N2C[C@H](O)C[C@H]2C(=O)N[C@@H](Cc2c[nH]c3ccccc23)C(=O)N[C@@H](CO)C(=O)N[C@@H](Cc2cn(C)c3ccccc23)C(=O)N1C (stereo partly drawn) [[^64Cu]Cu-DOTAGA-WL12, metal not drawn]	-2.57 ± 0.02			kon (PD-L1 [1]; medium + 2.5% BSA, n = 1): 7460 M⁻¹ s⁻¹; koff (PD-L1 [1]; medium + 2.5% BSA, n = 1): 6.74e-06 s⁻¹; kon (PD-L1 [1]; [7]): 12200 M⁻¹ s⁻¹; koff (PD-L1 [1]; [7]): 9.77e-06 s⁻¹; Bmax (maximum number of binding sites) (PD-L1 [2]; ^64Cu complexes, saturation binding with 2.5% BSA, PD-L1-positive PC3 cells): 56.7 ± 3.87 pmol/mg; affinity, times worse than previously reported using SPR (PD-L1 [2]; saturation KD versus SPR value of ref 68): approximately 15 times
Cc1c(COc2cc(OCc3cncc(C#N)c3)c(CN(C)CC(=O)NCC(S(=O)(=O)O)S(=O)(=O)O)cc2Br)cccc1-c1cccc(OCc2cn(CCCN3CCN(C(=O)CN4CCN(CC(=O)O)CCN(CC(=O)O)CCN(CC(=O)O)CC4)CC3)nn2)c1C [56b]		> 90	94.6	
CN(CC(=O)NCC(S(=O)(=O)O)S(=O)(=O)O)Cc1cc(Cl)c(OCc2cccc(-c3cccc(OCc4cn(CCCC5CCN(C(=O)CN6CCN(CC(=O)O)CCN(CC(=O)O)CCN(CC(=O)O)CC6)CC5)nn4)c3)c2Br)cc1OCc1cncc(S(C)(=O)=O)c1 [42a]	-2.73			
Cc1c(COc2cc(OCc3cncc(C#N)c3)c(CN(C)C(CO)(CO)CO)cc2Cl)cccc1-c1cccc(OCCCN2CCC(F)(F)C2)c1C [compound 3]				IC50 (PD-L1 [5]): 0.5 nM
CN(CC(=O)NCC(S(=O)(=O)O)S(=O)(=O)O)Cc1cc(Cl)c(OCc2cccc(-c3cccc(OCc4cn(CCOCCOCCN5CCN(C(=O)CN6CCN(CC(=O)O)CCN(CC(=O)O)CCN(CC(=O)O)CC6)CC5)nn4)c3)c2Br)cc1OCc1cncc(S(C)(=O)=O)c1 [42c]		> 90		
Cc1c(COc2cc(OCc3cncc(C#N)c3)c(CN(C)CC(=O)NCC(S(=O)(=O)O)S(=O)(=O)O)cc2I)cccc1-c1cccc(OCc2cn(CCCN3CCN(C(=O)CN4CCN(CC(=O)O)CCN(CC(=O)O)CCN(CC(=O)O)CC4)CC3)nn2)c1C [56c]			97.6	
Cc1c(COc2cc(OCc3cncc(C#N)c3)c(CN(C)CC(=O)NCC(S(=O)(=O)O)S(=O)(=O)O)cc2Cl)cccc1-c1cccc(OCc2cn(CCCN3CCN(C(=O)CN4CCN(CC(=O)O)CCN(CC(=O)O)CCN(CC(=O)O)CC4)CC3)nn2)c1C [56a]		> 90	95.7	
Cc1c(COc2cc(OCc3cncc(S(C)(=O)=O)c3)c(CN(C)CC(=O)NCC(S(=O)(=O)O)S(=O)(=O)O)cc2Cl)cccc1-c1cccc(OCc2cn(CCOCCOCCN3CCN(C(=O)CN4CCN(CC(=O)O)CCN(CC(=O)O)CCN(CC(=O)O)CC4)CC3)nn2)c1C [43c]	-3.5	> 90		
Cc1c(COc2cc(OCc3cncc(S(C)(=O)=O)c3)c(CN(C)CC(=O)NCC(S(=O)(=O)O)S(=O)(=O)O)cc2Cl)cccc1-c1cccc(OCc2cn(CCCN3CCN(C(=O)CN4CCN(CC(=O)O)CCN(CC(=O)O)CCN(CC(=O)O)CC4)CC3)nn2)c1C [43b]				blocking effect [6]: moderate blocking effect
